Experimental data reported in article PMC8694140, “Synthesis and photobiological applications of naphthalimide–benzothiazole conjugates: cytotoxicity and topoisomerase IIα inhibition” (RSC Advances, 2021).

How the values were obtained:
[1] = tested on: A549 (lung) human cancer cell line; assay: MTT cytotoxicity assay, A549; assay type: cell-based
Description: (§1) Human malignant cell lines, i.e., MCF7 (breast), HeLa (cervix), and A549 (lung), as well as non-cancerous human cell line Hek293 (kidney), were cultured using the Ham's media or DMEM having 10% FBS, […] streptomycin, 100 U ml^−1 penicillin, and 50 mM glutamine. For seeding of cells, 96 well plates were used, maintaining the density of […] cells per well with the help of DMEM as a media having 10% FBS cells. Then, seeded cells were incubated in an incubator having a 5% CO2 supply at 37 °C. Compounds were added to the wells at 1, 10, and 100 μM concentrations, and cells were incubated for 48 h at 37 °C and then added 10 μl of MTT to each well prepared from 5 mg ml^−1 stock solution using 1 × PBS buffer and were incubated for 4 h at 37 °C in the dark. DMSO (100 μl) was used to dissolve the formazan crystals. To determine the concentration of formazan, the crystal absorbance difference was recorded at 570 nm. The percentage of relative cell toxicity was calculated by using the following eqn (1):1 [drawing 1]

[2] = tested on: HeLa (cervix) human cancer cell line; assay: MTT cytotoxicity assay, HeLa; assay type: cell-based; conditions: 48 h
Description: as §1

[3] = tested on: MCF7 (breast) human cancer cell line; assay: MTT cytotoxicity assay, MCF7; assay type: cell-based
Description: as §1

[4] = tested on: Hek293 (kidney) human noncancerous cell line; assay: MTT cytotoxicity assay, normal cells Hek293; assay type: cell-based; conditions: read-out: growth inhibition of Hek293
Description: To evaluate the safety, the cytotoxic effect of all compounds (7–22) against Hek293 (kidney) human noncancerous cell line was also evaluated using a colorimetric assay (MTT assay) at the concentration level of 10 μM.
as §1

Compound | IC50 ([1]; 48 h) [µM] | IC50 [2] [µM] | IC50 ([3]; 48 h) [µM] | melting point [°C] | IC50 ([1]; Homo sapiens, A549, 48 h) [µM] | IC50 ([2]; Homo sapiens) [µM] | IC50 ([3]; Homo sapiens, MCF7, 48 h) [µM] | inhibition at 10 µM [4] [%]
6-(3-(Benzo[d]thiazol-2-yl)-1-propyl-1H-indol-5-yl)-2-(4-fluorophenyl)-1H-benzo[de]isoquinoline-1,3(2H)-dione [Compound 21] | 0.63 ± 0.08 | 3.96 ± 0.16 | 4.1 ± 0.23 |  |  |  |  | 
C=CCn1cc(-c2nc3ccccc3s2)c2cc(-c3ccc4c5c(cccc35)C(=O)OC4=O)ccc21 [Compound 7, 6-(1-Allyl-3-(benzo[d]thiazol-2-yl)-1H-indol-5-yl)-1H,3H-benzo[de]isochromene-1,3-dione] |  |  |  | 255 to 258 | 0.45 ± 0.04 | 7.18 ± 0.28 | 6.94 ± 0.16 | 
C=CCn1cc(-c2nc3ccccc3s2)c2cc(-c3ccc4c5c(cccc35)C(=O)N(CCCC)C4=O)ccc21 [Compound 8, 6-(1-Allyl-3-(benzo[d]thiazol-2-yl)-1H-indol-5-yl)-2-butyl-1H-benzo[de]isoquinoline-1,3(2H)-dione] |  |  |  | 277 to 280 | 1.19 ± 0.11 | 5.52 ± 0.15 | 7.69 ± 0.2 | 
C=CCn1cc(-c2nc3ccccc3s2)c2cc(-c3ccc4c5c(cccc35)C(=O)N(CCN)C4=O)ccc21 [Compound 9, 6-(1-Allyl-3-(benzo[d]thiazol-2-yl)-1H-indol-5-yl)-2-(2-aminoethyl)-1H-benzo[de]isoquinoline-1,3(2H)-dione] |  |  |  |  | 3.06 ± 0.13 | 4.02 ± 0.18 | 4.17 ± 0.13 | 17
C=CCn1cc(-c2nc3ccccc3s2)c2cc(-c3ccc4c5c(cccc35)C(=O)N(CCN(C)C)C4=O)ccc21 [Compound 10, 6-(1-Allyl-3-(benzo[d]thiazol-2-yl)-1H-indol-5-yl)-2-(2-(dimethylamino)ethyl)-1H-benzo[de] isoquinoline-1,3(2H)-dione] |  |  |  | 274 to 277 | 1.02 ± 0.08 | 3.4 ± 0.13 | 3.31 ± 0.11 | 
C=CCn1cc(-c2nc3ccccc3s2)c2cc(-c3ccc4c5c(cccc35)C(=O)N(CCN(CC)CC)C4=O)ccc21 [Compound 11, 6-(1-Allyl-3-(benzo[d]thiazol-2-yl)-1H-indol-5-yl)-2-(2-(diethylamino)ethyl)-1H-benzo[de] isoquinoline-1,3(2H)-dione] |  |  |  | 281 to 284 | 0.81 ± 0.05 | 3.07 ± 0.17 | 3.57 ± 0.21 | ~2
C=CCn1cc(-c2nc3ccccc3s2)c2cc(-c3ccc4c5c(cccc35)C(=O)N(CCN3CCOCC3)C4=O)ccc21 [Compound 14, 6-(1-Allyl-3-(benzo[d]thiazol-2-yl)-1H-indol-5-yl)-2-(2-morpholinoethyl)-1H-benzo[de]isoquinoline-1,3(2H)-dione] |  |  |  | 285 to 288 | 1.11 ± 0.06 | 3.93 ± 0.11 | 3.69 ± 0.09 | 
C=CCN1C(=O)c2cccc3c(-c4ccc5c(c4)c(-c4nc6ccccc6s4)cn5CC=C)ccc(c23)C1=O [Compound 15, 2-Allyl-6-(1-allyl-3-(benzo[d]thiazol-2-yl)-1H-indol-5-yl)-1H-benzo[de]isoquinoline-1,3(2H)-dione] |  |  |  |  | 1.89 ± 0.15 | 2.71 ± 0.09 | 0.38 ± 0.06 | 
C=CCn1cc(-c2nc3ccccc3s2)c2cc(-c3ccc4c5c(cccc35)C(=O)NC4=O)ccc21 [Compound 16, 6-(1-Allyl-3-(benzo[d]thiazol-2-yl)-1H-indol-5-yl)-1H-benzo[de]isoquinoline-1,3(2H)-dione] |  |  |  | 277 to 280 | 1.91 ± 0.1 | 3.61 ± 0.19 | 3.57 ± 0.08 | 
C=CCn1cc(-c2nc3ccccc3s2)c2cc(-c3ccc4c5c(cccc35)C(=O)N(Cc3ccccc3)C4=O)ccc21 [Compound 17, 6-(1-Allyl-3-(benzo[d]thiazol-2-yl)-1H-indol-5-yl)-2-benzyl-1H-benzo[de]isoquinoline-1,3(2H)-dione] |  |  |  | 281 to 284 | 2.01 ± 0.09 | 4.17 ± 0.21 | 4.39 ± 0.23 | 
C=CCn1cc(-c2nc3ccccc3s2)c2cc(-c3ccc4c5c(cccc35)C(=O)N(Nc3ccccc3)C4=O)ccc21 [Compound 18, 6-(1-Allyl-3-(benzo[d]thiazol-2-yl)-1H-indol-5-yl)-2-(phenylamino)-1H-benzo[de]isoquinoline-1,3(2H)-dione] |  |  |  |  | 0.96 ± 0.12 | 3.96 ± 0.2 | 3.58 ± 0.14 | 
C=CCn1cc(-c2nc3ccccc3s2)c2cc(-c3ccc4c5c(cccc35)C(=O)N(C3CCCCC3)C4=O)ccc21 [Compound 19, 6-(1-Allyl-3-(benzo[d]thiazol-2-yl)-1H-indol-5-yl)-2-cyclohexyl-1H-benzo[de]isoquinoline-1,3(2H)-dione] |  |  |  | 285 to 288 | 1.47 ± 0.12 | 3.33 ± 0.11 | 1.65 ± 0.11 | 
C=CCn1cc(-c2nc3ccccc3s2)c2cc(-c3ccc4c5c(cccc35)C(=O)N(CCN3CCNCC3)C4=O)ccc21 [Compound 20, 6-(1-Allyl-3-(benzo[d]thiazol-2-yl)-1H-indol-5-yl)-2-(2-(piperazin-1-yl)ethyl)-1H-benzo[de] isoquinoline-1,3(2H)-dione] |  |  |  | 294 to 297 | 0.76 ± 0.04 | 3.45 ± 0.13 | 3.35 ± 0.16 | 18
CCCn1cc(-c2nc3ccccc3s2)c2cc(-c3ccc4c5c(cccc35)C(=O)N(N)C4=O)ccc21 [Compound 22, 2-Amino-6-(3-(benzo[d]thiazol-2-yl)-1-propyl-1H-indol-5-yl)-1H-benzo[de]isoquinoline-1,3(2H)-dione] |  |  |  |  | 0.84 ± 0.07 | 8.59 ± 0.28 | 5.84 ± 0.28 | 
COc1cc([C@@H]2c3cc4c(cc3[C@@H](O[C@@H]3O[C@@H]5CO[C@@H](C)O[C@H]5[C@H](O)[C@H]3O)[C@H]3COC(=O)[C@H]23)OCO4)cc(OC)c1O [Etoposide, reference compound] |  |  |  |  | 0.1 ± 0.02 | 1.89 ± 0.19 | 0.33 ± 0.13 | 
